Some test systems named below: NCI-H226 lung; MDA-N; DLD-1 colon; MCF7 breast; SW-620 colon; SK-MEL-2 melanoma; A549 NSCLC; T-47D breast; K-562 leukemia; UO-31 renal.
Assay in all cases: NCI tumour cell line growth inhibition, 48 h

Where “and” joins values, the source holds several entries; their conditions need not be identical. Identical values can stand only once.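 48-hour exposure; five concentrations; linearly interpolated endpoints. GI50 = concentration required for 50% inhibition of growth. TGI marks complete inhibition of growth.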 Some results are limits rather than exact numbers.

Experimental findings from PubChem BioAssay (NCI) are described below.

`c1ccc(CN2COc3c(ccc4c5c(ccc34)CN(Cc3ccccc3)CO5)C2)cc1`: the TGI in the test on NCI-H226 lung, in the test with MDA-N, with DLD-1 colon, in the test with MCF7 breast, in the test with SW-620 colon and in the test with SK-MEL-2 melanoma was over 100 µM in each case. Further, the TGI with A549 NSCLC, in the test with T-47D breast, in the test with K-562 leukemia and in the test with UO-31 renal was over 100 µM throughout.

On to `COc1c(CC=C(C)C)c(O)c(C(CC(C)C)c2c(O)c(CC=C(C)C)c(O)c(C(C)=O)c2O)c(O)c1C(C)=O` (stereo not given), for which the TGI was determined as 10.6 µM in the test with NCI-H226 lung; 8.08 µM with MDA-N; 10.9 µM with DLD-1 colon; 4.84 µM with MCF7 breast; 5.8 µM in the test on SW-620 colon; 1.94 µM in the test with SK-MEL-2 melanoma. Further, the TGI in the test on A549 NSCLC was determined as 12.1 µM; with T-47D breast, 16 µM; in the test on K-562 leukemia it was 5.71 µM; in the test on UO-31 renal, 11.1 µM.

With `O=c1[nH]c2ccccc2n1C1CCN(CCCC(c2ccc(F)cc2)c2ccc(F)cc2)CC1`, the GI50 in the test on NCI-H226 lung was 1.51 µM and 6.66 µM; in the test with MCF7 breast, 1.59 µM and 5.3 µM; in the test on SW-620 colon it was 1.75 µM and 4.5 µM; in the test on SK-MEL-2 melanoma, 2.1 µM and 5.52 µM; in the test with A549 NSCLC, 1.48 µM and 7.32 µM; in the test on T-47D breast, 1.06 µM and 4.22 µM. The GI50 is 1.88 µM in the test with K-562 leukemia; 1.11 µM and 3.56 µM in the test with UO-31 renal. Further, the TGI was 2.97 µM and 20.3 µM in the test with NCI-H226 lung; 21.4 µM in the test with MDA-N; 13.9 µM in the test with DLD-1 colon; 3.1 µM and 11.8 µM with MCF7 breast; 3.41 µM and 13.8 µM in the test on SW-620 colon; 3.96 µM and 12.3 µM in the test on SK-MEL-2 melanoma. For the same compound, the TGI in the test with A549 NSCLC is 3.14 µM and 21.9 µM; in the test on T-47D breast it was 2.67 µM and 17.7 µM; with K-562 leukemia it was 4.54 µM and 17.4 µM; with UO-31 renal, 2.44 µM and 18.1 µM.

On to `C/C(=N\NC(=S)N1CCN(c2ccccn2)CC1)c1ncccn1`, for which the GI50 in the test on NCI-H226 lung is 1.71 µM; in the test on MDA-N it was 0.233 µM; with DLD-1 colon, 0.0258 µM; with SW-620 colon, 0.038 µM; in the test with SK-MEL-2 melanoma, 2.48 µM; in the test on A549 NSCLC, 0.117 µM. Also, in the test with UO-31 renal, the GI50 was 0.535 µM. Also, the TGI in the test with NCI-H226 lung was 5.78 µM and 11 µM; with MDA-N, 14.8 µM; in the test on DLD-1 colon it was 4.98 µM and 14.3 µM; in the test on MCF7 breast, 13.4 µM; in the test with SW-620 colon it was 5.18 µM and 17.8 µM; in the test on SK-MEL-2 melanoma, 5.88 µM and 18.5 µM. Besides, the TGI with A549 NSCLC is 5.91 µM and 13.2 µM; in the test on T-47D breast it was 18.5 µM; with K-562 leukemia, 1.35 µM and 4.46 µM; with UO-31 renal, 4.58 µM and 13.7 µM.
